Results reported in US20130309695A1, “METHODS OF DIAGNOSING ASTHMA” (UNIVERSITY OF MANITOBA, priority 2010, published 2013).

B1: IL-4: cytokine used to stimulate HASMC (protein, UniProt P05112 25-153, looked up)
Interleukin-4: HKCDITLQEIIKTLNSLTEQKTLCTELTVTDIFAASKNTTEKETFCRAATVLRQFYSHHEKDTRCLGATAQQFHRHKQLIRFLKRLDRNLWGLAGLNSCPVKEANQSTLENFLERLKTIMREKYSKCSS

Columns and labels:
[1] = tested on: TNF-α-mediated PTX3 release from HASMC; assay: Effect of MAPK inhibitors on TNF-α-induced PTX3 release from HASMC (ELISA); format: cell-based, human; conditions: 10 μM, 1 h pretreatment, then TNF-α 10 ng/ml for 24 h
Experimental: (§1) Confluent HASMC (passages 2-5) were growth-arrested by FBS deprivation for 48 h in Ham's F-12 medium containing 5 μg/ml human recombinant insulin, 5 μg/ml human transferrin, 5 ng/ml selenium, and antibiotics (100 U/ml penicillin and 100 μg/ml streptomycin). Cells were then stimulated in fresh FBS-free medium containing graded concentration (0.1, 1, 10, and 100 ng/ml) of human TNF-α, IL-4, PTX3 or medium alone. In some experiments, cells were pretreated for 1 h with U-0126 (10 μM), SB-203580 (10 μM), or SP600125 (50 nM) before stimulation for 24 h with TNF-α (10 ng/ml), at 10 ng/ml. Supernatants were collected at 24 and 48 h, centrifuged at 1,200 rpm for 7 min at 4° C. to remove cellular debris, and stored at −80° C. until analysis by ELISA.
(§2) Immunoreactive PTX3 within the supernatants was quantified using ELISA with matched antibodies according to basic laboratory protocols provided by the manufacturer (R&D Systems Inc., Minneapolis, Minn.). PTX3 protein was quantified in reference to serial dilutions of recombinant standards falling within the linear part of the standard curve for each specific PTX3 measured. Each data point represents readings from a minimum of four independent assays wherein each assay was performed in duplicate.
One of the major downstream pathways for TNF-α-induced cell activation is MAPKs, which play an important role in cells for inflammatory response. Growth-arrested HASMC cells were left unstimulated (medium alone) or treated with 10 ng/ml TNF-α for 24 h, with or without pretreatment for 1 h with inhibitors of JNK (SP600125 50 nM), p42/p44 ERK (U-0126, 10 μM) and p38 MAPK (SB-203580, 10 μM).

[2] = tested on: PTX3 mRNA expression in human airway smooth muscle cells (HASMC); assay: PTX3 mRNA expression in cultured HASMC (RT-PCR / real-time RT-PCR); format: cell-based
Experimental: as §1
Confluent HASMC (passages 2-5) were growth-arrested for 48 h in serum-free medium as described above. Cells were then stimulated in fresh FBS-free medium containing human recombinant TNF-α (10 ng/ml), IL-4, or medium alone for 2, 6, and 24 h. Cells were harvested, and total cellular RNA was extracted using TRIzol® method (Invitrogen Life Technologies, Gaithersburg, Md.). The RNA concentration and purity were assessed with optical density measurements. […] Amplified products were analyzed by DNA gel electrophoresis in 2% agarose and visualized by ethidium bromide staining under ultraviolet illumination. […] The PTX3 level was quantified by scanning densitometry and corrected for GAPDH in the same sample. […]
Total cellular RNA extraction and reverse transcription was performed as described above. […] The amount of extracted DNA was quantified by spectrophotometry and expressed as copy number. […] For real-time quantitative PCR, each reaction contained the following: 1× LightCycler® DNA Master SYBR Green I (Roche), 25 mM MgCl2, 0.5 μM each primer, 0.07 μM TaqStart® Ab (Clontech), and 10 μl (1:10 for PTX3 and 1:80 for GAPDH) of cDNA, in a final volume of 25 μl. […]

PTX3 release from HASMC = assay: PTX3 protein release from HASMC into the supernatant (ELISA); format: cell-based, human; conditions: growth-arrested HASMC, 24 h, 0.1, 1, 10 ng/ml
Experimental: as §1, with “Supernatants were collected at 24 and 48 h, centrifuged at 1,200 rpm for 7 min at 4° C. to remove cellular debris, and stored at −80° C. until analysis by ELISA.” left out
as §2
Assessments were made of the effects of dosage and exposure time of TNF-α on HASMC. […] For both experiments, HASMC were stimulated with 0.1, 1, 10 or 100 ng/ml TNF-α, or medium alone for 24 h after which, PTX3 was measured by ELISA.

Row | Molecule | effect on TNF-α-induced PTX3 release [1] | PTX3 release from HASMC (PTX3 release from HASMC) | further results
1 | C[S+]([O-])c1ccc(-c2nc(-c3ccncc3)c(-c3ccc(F)cc3)[nH]2)cc1 (centres unmarked) [SB-203580, 4-(4-fluorophenyl)-2-(4-methyl-sulfinylphenyl)-5-(4′-pyridyl)-1H-imidazole] | no effect | – | –
2 | N#CC(=C(N)Sc1ccccc1N)C(C#N)=C(N)Sc1ccccc1N [U-0126, 1,4-diamino-2,3-dicyano-1,4-bis(2-aminophenylthio)butadiene] | significant inhibition | – | effect on TNF-α-induced PTX3 release ([1]; listed as U0126): abrogate
3 | TNF-α | – | induced the release of PTX3 in a dose-dependent manner | fold increase of PTX3 mRNA compared with unstimulated cells ([2]; 10 ng/mL, 6 h, ratio to GAPDH, mean±SD of three experiments): 30.93±11.25 fold; time of peak PTX3 mRNA response ([2]; 10 ng/ml, stimulated 2, 6 and 24 h, real-time RT-PCR): 6 h
4 | B1 | – | No significant PTX3 release | effect on PTX3 mRNA expression ([2]; 6 h, data not shown): no significant effect
